Reference: patent US20100331336A1, “PROTECTIVE EFFECT OF HIGH DOSE FOLATE ON MYCARDIAL ISCHEMIA” (Universiteit Antwerpen, priority 2008, published 2010)

Key:
myocardial superoxide = experiment: Myocardial superoxide by lucigenin-enhanced chemiluminescence; format: in vivo, rat; details: for decline of O2^− generation on pre-incubation of extracts: 100 μM BH4
Protocol: (§1) Adult Wistar rats received FA (10 mg/day unless otherwise stated) or placebo by oral gavage for 7-days prior to performing the ischemia/reperfusion (IR) experiment. A total of 131 rats were used, the sample size reflecting the requirement for multiple assays that could not be performed in each animal, but were rather obtained in different subsets of the total group. Animals were anesthetized (pentobarbital 60 mg/kg), intubated via tracheotomy, and ventilated (Harvard Apparatus, Mass.). ECG was monitored and temperature maintained at 37.5° C. The left anterior artery was exposed through the 4-5th intercostal space and a suture placed around it, and transient coronary artery ligation performed for 30 min with (n=85) or without (n=46) 90 min reperfusion. In one subgroup of reperfused animals (n=9), FA was provided 10 minutes after the onset of LAD occlusion (i.e. 20 minutes before the onset of reperfusion), delivered as an IV-bolus.
(§2) Superoxide was assessed by lucigenin (5 μM)-enhanced chemiluminescence (Beckman LS60001C, n=23)^22 and fluorescent microtopography (dichlorodihydro-fluorescein diacetate, DCF, n=16) and dihydroethidium, DHE, n=24) (Gupte et al., 2005). The direct anti-oxidants effects of folic acid were analysed using an in vitro xanthine/xanthine oxidase system (Antoniades et al., 2006) and compared with Tempol.

serum homocysteine = details: achievable with 0.8 mg/d; cited from earlier work
[1] = tested on: Adult Wistar rats, coronary artery ligation; experiment: Open chest echocardiography during LAD occlusion; format: in vivo, rat; details: FA pre-treatment; at 30 min ischemia
Protocol: as §1
(§3) LV function was assessed in vivo by pressure-volume loops (n=14) during both ischemia and following reperfusion. […] Open chest myocardial anterior wall motion was also measured using a Sequoia—Acuson C256 equipped with 15 MHz linear transducer (Sequoia C256 Echocardiography System, Acuson Corporation, Mountain View, Calif.) at the parasternal view of the left ventricle chamber as described.

[2] = tested on: superoxide generated by xanthine/xanthine oxidase; experiment: In vitro xanthine/xanthine oxidase O2− generating system; format: biochemical; details: lucigenin-enhanced chemiluminescence, FIG. 5F
Protocol: as §2

[3] = tested on: Adult Wistar rats, coronary artery ligation; experiment: Ischemia and reperfusion arrhythmia, in vivo IR; parameters: species or system rat
Protocol: as §1

[4] = tested on: Adult Wistar rats, coronary artery ligation; experiment: HPLC analysis of high energy phosphate metabolism in anterior wall samples; format: in vivo, rat; details: FA pre-treatment; 30 min ischemia, versus controls
Protocol: as §1, with “In one subgroup of reperfused animals (n=9), FA was provided 10 minutes after the onset of LAD occlusion (i.e. 20 minutes before the onset of reperfusion), delivered as an IV-bolus.” left out
Snap frozen samples (n=24) from the anterior wall (±FA pre-treatment; ±30 min ischemia, no reperfusion) were de-proteinized and subjected to HPLC analysis of water-soluble low-molecular weight compounds reflecting tissue oxid-oreductive and energy status. High-energy phosphates, oxypurines (hypoxanthine, xanthine, and uric acid), nucleosides (inosine and adenosine), malondialdehyde, and reduced and oxidized glutathione were measured by ion-pairing HPLC as described (Takimoto et al., 2005).

[5] = tested on: isolated hearts of adult Wistar rats; experiment: In vitro IR model, isolated perfused hearts: infarct size and LDH; parameters: species or system rat
Protocol: (§4) Adult Wistar rats (n=28) were anesthetized (pentobarbital 60 mg/kg), and hearts rapidly excised and mounted onto a retrograde perfusion system (Emka, Paris, France) using warmed, oxygenated buffered Krebs-Henseleit solution at constant perfusion pressure (75 mmHg). Hearts were paced at 300 bpm, and maintained in an unloaded state. Coronary flow was measured by an in-line ultrasonic flow probe (Transonic Systems, Ithaca, N.Y., USA). After 30 min equilibration, vasodilators drugs (bradykinin and sodium nitroprusside) were infused by bolus injection (50 μl, 10^−8-10^−5.5 M i.c.) and coronary flow reserve assessed at constant perfusion pressure. After re-establishing baseline, hearts received FA (4.5 10^−6M i.c.) or vehicle for 30 min. Afterwards the hearts were subjected to 40-min zero coronary flow followed by 40 min of reperfusion. Coronary effluent was collected, concentrated (Sartorius-Sipan, Lier, Belgium) and analysed for lactate dehydrogenase (Vitros 950AT, O. C. D., Beerse, Belgium). Coronary vasodilator responses to the same two agents were repeated following reperfusion.
(§5) Infarct size was assessed in 31 rats, with area at risk (AAR) determined by negative staining with Evans blue injected during coronary occlusion, and subsequent staining with TTC to detect myocardial necrosis. LV (free wall+whole septum), AAR (neg Evan's Blue) and area of necrosis (TTC-white) were measured by planimetry (Soft Imaging system GmbH, Analysis pro version 3.00), and digitized images subjected to equivalent background subtraction, brightness, and contrast enhancement for improved clarity and sharpness. For in vitro studies, TTC staining was not preceded by Evans' blue staining because global ischemia was created. Contraction band necrosis was assessed in vivo rat hearts (n=22) fixed in Carnoy solution and stained with Masson's trichrome. Serial adjacent fields were examined throughout the full LV to calculate the percent myocardium with contraction bands present. Similar analysis was performed for TUNEL-positivity (Chemicon Intern, Temecula, Calif.), also expressed as percent LV area.

[6] = tested on: Adult Wistar rats, coronary artery ligation; experiment: In vivo ischemia/reperfusion model, pressure-volume loop hemodynamics; parameters: species or system rat; details: FA 10 mg/d oral pre-treatment 7 days; 30 min LAD occlusion
Protocol: as §1, §3

eNOS = eNOS monomer/dimer formation and NOS enzymatic activity in IR tissue; format: in vivo, rat
Protocol: as §1
SDS-resistant eNOS dimers and monomers were assayed on ischemia/reperfusion-tissue (n=16) using low temperature SDS-PAGE as previously described (Takimoto. et al., 2005) NOS enzymatic activity was assessed by arginine to citrulline conversion assay from extracts obtained from frozen myocardium (n=15) (Takimoto. et al., 2005).

[7] = tested on: Adult Wistar rats, coronary artery ligation; experiment: Regional myocardial blood flow by microspheres; format: in vivo, rat; details: FA pre-treatment
Protocol: as §1
Regional myocardial blood flow was assessed (n=12) by nuclear-activated microspheres ([…], BioPal, Worcester, MA) injected in the left atrium (0.3 ml of 2.5*10^6 spheres/ml) at baseline and after 5 and 30 min of ischemia (Reinhardt et al., 2001). Total counts per minute (cpm) were normalized to weight and results from the ischemic zone normalized to the remote region to provide relative blood flow before and during ischemia.

[8] = tested on: isolated hearts of adult Wistar rats; experiment: Coronary flow and vasodilator response in isolated hearts; parameters: species or system rat
Protocol: as §4

[9] = tested on: Adult Wistar rats, coronary artery ligation; experiment: Infarct size analysis and histology, in vivo IR; parameters: species or system rat
Protocol: as §1, §5

[10] = FA 10 mg i.v. after 10 min of coronary occlusion

In the case of `C[C@H](O)[C@H](O)[C@H]1CNc2nc(N)[nH]c(=O)c2N1` [BH4, tetrahydrobiopterin], the “decline of O2^− generation on pre-incubation of extracts” value (myocardial superoxide; extracts of FA pre-treated hearts) is reported as 52.1±11.3% and the “decline of O2^− generation on pre-incubation of extracts” value (myocardial superoxide; extracts of vehicle treated IR hearts) is reported as 90.9±0.7%.

In the case of `Nc1nc2ncc(CNc3ccc(C(=O)N[C@@H](CCC(=O)O)C(=O)O)cc3)nc2c(=O)[nH]1` [FA, folic acid], the “decrease in serum homocysteine” value (serum homocysteine) is given as 3 µmol/L, the “decline of myocardial superoxide (lucigenin chemiluminescence)” value (myocardial superoxide; FA pre-treated animals, during ischemia and after 90 minutes reperfusion) is given as ~50% and the Ejection fraction [1] is given as 72.8±1.2%. For the same compound, the anterior-septal thickening [1] was 37.±5.3%, the direct anti-oxidant effect [2] was “substantial anti-oxidant effects” and the reperfusion arrhythmia occurrence ([3]; FA treated) was “no FA treated animal”. The “lethal ventricular arrhythmia triggered by ischemia, % of rats” value ([3]; FA-treated) was 8.3%, the “myocardial ATP and ADP during ischemia” value [4] was “maintained at higher levels” and the “infarct size in isolated hearts” value ([5]; FA 4.5 10^−6M i.c. 30 min, 40 min zero flow, 40 min reperfusion) was 7.7±2.8%. The “reduction of myocardial necrosis in hearts studied in vitro” value ([5]; FA pre-treatment, FIG. 4D) was ~80%, the “lactate dehydrogenase in the coronary effluent” value ([5]; FA pre-treatment, after ischemia-reperfusion) was “less lactate dehydrogenase” and the “Peak LV pressure (systolic blood pressure) change with LAD occlusion” value [6] was “changed little”. For the same compound, the “eNOS ratio of dimer/monomer” value (eNOS; FA-pre-treated IR hearts) was “near normal”, the “NOS activity, arginine-citrulline conversion” value (eNOS; treated vs. non-treated hearts, p=0.08) was “not significant improved” and the “ratio of ischemic/remote zone myocardial perfusion, decline” value ([7]; after 5 min of LAD ligation) was −77.7±5.1%. For the same compound, the “flow compared to the remote region” value ([7]; at 30 minutes of ischemia) was −78.4±9.3%, the “Bradykinin induced maximal rise in coronary flow” value ([8]; after IR, hearts pre-treated with FA) was 122.0±11.3% and the “coronary flow after ischemia” value ([8]; isolated hearts) was 8.9 ± 1.4 mL/min. For the same compound, the “coronary flow at baseline” value ([8]; isolated hearts) was 11.4 ± 13.8 mL/min, the “TUNEL staining, % LV” value [9, 10] was 4.3±1.3 % LV and the “area at risk (AAR)” value [9, 10] was 52.4±5.5%. For the same compound, the “contraction band necrosis, % LV” value [9, 10] was 5.1±0.7 % LV, the “infarct size relative to AAR” value ([9]; FA 10 mg i.v. after 10 min of coronary occlusion, n=5) was 3.0±2.2% and the “infarct size, % area at risk” value ([9]; oral FA 10 mg/d pre-treatment 7 days, 30 min ischemia, 90 min reperfusion) was 3.8±1.2%. The “Reperfusion contraction band necrosis, % of the LV” value ([9]; oral FA pre-treatment, IR) was 4.6%±1.2, the “TUNEL-positive myocytes, % of LV fields” value ([9]; oral FA pre-treatment, IR) was 4.3±1.3% and the “infarct size with lower doses” value ([9]; pre-treatment by 40% and 10% of the principal FA dose (1 and 4 mg/d)) was “decline in infarct size occurred”.
